This is an account of results in patent US20150313928A1, “NEW APPLICATION OF CATALPOL” (SUZHOU YOUSEEN NEW PHARMACY DEVELOPMENT CO., LTD., priority 2012, published 2015).

For test [1], the system named is Kunming mice. Briefly: Animal model preparation: injection of levothyroxine sodium (heart rate, serum T3/T4, heart weight index). The class given is in vivo. The following applies: levothyroxine sodium 350 μg/kg subcutaneous injection, model group. The method, then:
The animals are placed indoor for milieu adaptation 2 days prior to the experiment. 20 Kunming mice are randomly selected and put in the blank group, administered normal saline by subcutaneous injection, while the other mice are administered levothyroxine sodium 350 μg/kg by subcutaneous injection, with a daily dosage of 10 ml/kg, for 7 consecutive days.
After the third hour at the sixth day of medication, 10 mice (half male and half female) are randomly selected respectively from the blank group and the model group for measurement of heart rate. Under anesthesia, the mice are taken electrocardiogram for calculation of their heart rate. Statistical analysis is then conducted for comparison of differences.
In the case of substantial acceleration of its heart rate, a mouse is suspended of food without suspension of water for 12 hours starting at 8 o'clock of the last day (the seventh day) of medication. Each mouse in each group is taken of its weight at 8 o'clock the next morning. Blood is taken from its eye ball and subsequent to coagulation, put in centrifugation for 15 minutes at 3500 r/min, for measurement of T3 and T4 by means of radioimmunoas say. Each mouse is sacrificed and its heart is taken out for measurement of its heart weight and left ventricular weight. At conclusion of the experiment, the heart weight index and left ventricular weight index is calculated. [Heart weight index HWI=heart weight (HW)/body weight (BW); left ventricular weight index LVWI=left ventricular weight (LVW)/ body weight (BW)]
If the levels of the above indexes are substantially elevated, the model is regarded as successful.

Test [2] concerns mice in the hyperthyroidism model group. The experiment in a line: Measurement of heart rate of the mice (electrocardiogram). The class given is in vivo, Kunming mice. The method, then: The successfully modeled mice are randomized into 5 groups (10 mice per group), that is, the hyperthyroidism model group, the catalpol low dosage group, the catalpol medium group, the catalpol high dosage group, and the methimazole group, plus the blank group (10 mice). The catalpol low dosage group is administered 30mg/kg catalpol, the catalpol medium dosage group 60 mg/kg, the catalpol high group 90 mg/kg and the methimazole group 7.5 mg/kg methimazole, all by gastric infusion, while the blank group and the hyperthyroidism group are administered equal amount of distilled water, once per day, for 20 consecutive days. With the exception of the blank group, each mouse in each group continues to be administered 350 ug/kg levothyroxine sodium by means of subcutaneous injection each day. All the mice are suspended of food without suspension of water for 12 hours one day prior to the last medication and heart rate is measured 3 hours later. Heart rate (HR) is calculated via the electrocardiogram, statistics is then conducted, and differences are compared.

The test system is the same in test [3]. Briefly: Measurement of the oxygen consumption of the mice. The class given is in vivo, Kunming mice. The method, then:
(§1) The successfully modeled mice are randomized into 5 groups (10 mice per group), that is, the hyperthyroidism model group, the catalpol low dosage group, the catalpol medium group, the catalpol high dosage group, and the methimazole group, plus the blank group (10 mice).
(§2) The catalpol low dosage group is administered 30mg/kg catalpol, the catalpol medium dosage group 60 mg/kg, the catalpol high group 90 mg/kg and the methimazole group 7.5 mg/kg methimazole, all by gastric infusion, while the blank group and the hyperthyroidism group are administered equal amount of distilled water, once per day, for 20 consecutive days. With the exception of the blank group, each mouse in each group continues to be administered 350 ug/kg levothyroxine sodium by means of subcutaneous injection each day.
Oxygen consumption is measured two days prior to the last medication. The specific method is: take a model CY-3 digital oxygen meter and install therein an oxygen electrode. Connect, perform zero adjustment, and repeat until the instrument is stable for use. Take a 500 ml bottle, fix its outward connecting pipe with a rubber cover, seal with Vaseline. The rubber cover is connected via a tee, and a shift in the tee is selectable for connection or disconnection with outer space. A mouse is placed inside the bottle, and the mouth of the bottle is instantly covered with a wood plug to shut off air from the inner flask. The filtering flask is horizontally placed on the experiment table, and timing of 20 minutes After 20 minute, 10 ml air from the bottle was taken out by a injector and rapidly injected into a connector of the CY-3 type digital oxygen analyzer with the oxygen analyzer indicating oxygen content of the pumped in air. The data, when stable, is recorded as the residual oxygen value, then the oxygen consumption (20 min, 10 ml)=21%—residual oxygen value (%). (21% oxygen in air).

For test [4] the test system is unchanged. Briefly: Measurement of mice weight change. The class given is in vivo, Kunming mice. The method, then: as §1, §2
A mouse is suspended of food without suspension of water for 12 hours starting at 8 o'clock one day prior to the first medication, and all the mice are taken of their body weight (BW) the next day, that is, the pre-treatment body weight (BW1); the mouse is suspended of food without suspension of water for 12 hours starting at 8 o'clock of the day of the last medication, its body weight (BW) is taken the next day, that is, the post-treatment body weight (BW2); the difference of the pre-treatment body weight and the post-treatment body weight is calculated to compare the change of the body weight of the mice among each group.

For test [5] the test system is unchanged. The experiment in a line: Measurement of the level of thyroid hormone of serum (radioimmunoassay). The class given is in vivo, Kunming mice. The protocol: as §1, §2
A mouse is suspended of food without suspension of water for 12 hours subsequent to the last medication, and blood is taken from its eye ball, put in centrifugation for 15 minutes at 3500 r/min, serum is pumped out for measurement of T3, T4, FT3, and FT4 by means of radioimmunoassay. For detailed operations, see the instruction manual.

Test [6] shares this test system. The experiment in a line: Measurement of heart indexes of the mice. The class given is in vivo, Kunming mice. Details: HWI / LVWI: unit not given here. The method, then:
as §1, §2
A mouse is sacrificed its heart instantly taken out for measurement of its heart weight (HW) and (left ventricular weight (LVW). Heart weight index (HWI=HW/BW) and left ventricular weight index (LVWI=LVW/BW) is calculated at conclusion the experiment.

Where [7] appears, read: serum, methimazole 7.5 mg/kg gastric infusion once per day, 20 days.

`N[C@@H](Cc1cc(I)c(Oc2cc(I)c(O)c(I)c2)c(I)c1)C(=O)O` [levothyroxine sodium] came in with an HWI in test [1] (heart weight index = HW/BW, 7 day) of 5.642 mg/g. In test [1] (left ventricular weight index = LVW/BW, 7 day), the LVWI stood at 3.735 mg/g. In test [1] (6 day, mean ± S), this molecule came in with an HR of 674.42 times/min. In test [1] (serum, 7 day, mean ± S), this molecule had a T3 of 2.89 ng/mL and a T4 of 311.43 ng/mL.

For `Cn1cc[nH]c1=S` [methimazole, reference compound], the Heart rate entry in test [2] (in words, compared with the model group, catalpol 30, 60, 90 mg/kg groups, methimazole 7.5 mg/kg) was “decreased heart rate to some extent”. Moreover, the Heart rate in test [2] (methimazole 7.5 mg/kg gastric infusion once per day, 20 days, levothyroxine sodium 350 ug/kg s.c. daily) was 474.02 times/min. Besides, the oxygen consumption entry in test [3] (in words, compared with the model group, catalpol low (30 mg/kg) and high (90 mg/kg) dosage groups, methimazole 7.5 mg/kg) is “significantly decreased oxygen consumption”. Moreover, the “Decrease in oxygen content” value in test [3] (methimazole 7.5 mg/kg gastric infusion once per day, measured two days prior to the last medication, 21% minus residual oxygen) was 8.53 %, 20 min. For the same molecule, the “BW2 − BW1” value in test [4] (body weight difference, methimazole 7.5 mg/kg gastric infusion once per day, 20 days) is listed as 9.00 g. Also, in test [4] (in words, compared with the model group, catalpol groups, methimazole 7.5 mg/kg), the body weight increase result is “more body weight increase to some extent”. The molecule also registered a BW2 in test [4] (post-treatment body weight, methimazole 7.5 mg/kg gastric infusion once per day, 20 days, levothyroxine sodium 350 ug/kg s.c. daily) of 36.30 g. Further, the BW1 in test [4] (pre-treatment body weight, methimazole 7.5 mg/kg group) is reported as 27.30 g. Also, the “T3 level in the serum” value in test [5] (in words, compared with the model group, catalpol 30, 60, 90 mg/kg groups, methimazole 7.5 mg/kg, P<0.05) is given as “decreased T3 level in the serum to some extent”. Besides, the “FT3 level in the serum” value in test [5] (in words, compared with the model group, catalpol low P<0.01, medium, high and methimazole P<0.05) is “decreased FT3 level in the serum to some extent”. For the same molecule, the “FT4 level in the serum” value in test [5] (in words, compared with the model group, only catalpol low dosage significant (P<0.05)) was “decreased FT4 level in the serum to some extent”. For the same molecule, in test [5] (in words, compared with the model group, only methimazole difference significant (P<0.05)), the “T4 level in the serum” value was “decreased T4 level in the serum to some extent”. In test [5] (setting [7]), the FT3 was determined as 8.80 ng/mL, the FT4 is 26.85 ng/mL, the T3 turned out to be 3.64 ng/mL and the T4 came out at 145.61 ng/mL. The molecule also yielded an HWI in test [6] (heart weight index = HW/BW, methimazole 7.5 mg/kg gastric infusion once per day, 20 days) of 5.784. The heart weight index entry in test [6] (in words, compared with the model group, catalpol medium and high dosage and methimazole significant) is on record as “decreased heart weight index to some extent”. For the same molecule, the left ventricular index result in test [6] (in words, compared with the model group, catalpol medium and high dosage significant (P<0.01)) is on record as “decreased left ventricular index to some extent”. The LVWI in test [6] (left ventricular weight index = LVW/BW, methimazole 7.5 mg/kg gastric infusion once per day, 20 days) is 1.560.
